# Test results from PMC3103432, “Effect of reverse transcriptase inhibitors on LINE-1 and Ty1 reverse transcriptase activities and on LINE-1 retrotransposition” (BMC Biochemistry, 2011).
# What was measured:
# [1] = test system: ORFeus-Hs (synthetic human L1) retrotransposition in HeLa cells; experiment: Cell-based L1 retrotransposition assay, ORFeus-Hs
# Experimental: The cell-based retrotransposition assay was conducted as described. HeLa cells (a gift from Dr. John Moran, University of Michigan) were seeded in 6-well dishes in DMEM (2×10^5 cells/well). The next day cells were transfected with Fugene 6 according to the manufacturer's manual. Each transfection consisted of 96 μl Opti-Mem, 1 μg pWA195 DNA and 3 μl Fugene 6. Sixteen hours after transfection, the cells were trypsinized and transferred to a 6 cm plate in DMEM with 2.5 μg/ml puromycin and the RT inhibitors. Three days after puromycin selection, dead cells were removed and puromycin resistant cells were trypsinized and counted with a hemocytometer. The puromycin resistant cells were plated on a 10 cm plate (1×10^4 cells/plate) in 10 ml DMEM with 500 μg/ml G418. The RT inhibitors were added to the same concentration as in the puromycin selection. […] Two weeks later, G418 resistant cells were fixed to the plate and stained with 0.1% crystal violet. The number of G418 resistant colonies was counted to calculate retrotransposition frequency. Six independent assays were done for each RT inhibitor.
# [2] = test system: AMV RT, MLV RT, human DNA polymerases α, β, γ and Klenow fragment; conditions: cited from earlier work
# [3] = test system: HIV-1 mutants (substitutions at positions 103, 106, 181, 188 and 190); set-up: method as in PMID 17370068; conditions: cited from earlier work
# Ty1 RT = molecular target: T1, Ty1 RT (Saccharomyces cerevisiae, UniProt Q99231); experiment: In vitro RT assay with recombinant Ty1 RT; type: biochemical; conditions: concentrations as high as 500 μM
# T1 construct: recombinant Ty1 RT, which required C-terminal residues of integrase for its RT activity; made in house; host or cells: E. coli BL21 (co-transformed with chaperone plasmid pG-Tf2)
# T1 sequence (Q99231 1103-1755): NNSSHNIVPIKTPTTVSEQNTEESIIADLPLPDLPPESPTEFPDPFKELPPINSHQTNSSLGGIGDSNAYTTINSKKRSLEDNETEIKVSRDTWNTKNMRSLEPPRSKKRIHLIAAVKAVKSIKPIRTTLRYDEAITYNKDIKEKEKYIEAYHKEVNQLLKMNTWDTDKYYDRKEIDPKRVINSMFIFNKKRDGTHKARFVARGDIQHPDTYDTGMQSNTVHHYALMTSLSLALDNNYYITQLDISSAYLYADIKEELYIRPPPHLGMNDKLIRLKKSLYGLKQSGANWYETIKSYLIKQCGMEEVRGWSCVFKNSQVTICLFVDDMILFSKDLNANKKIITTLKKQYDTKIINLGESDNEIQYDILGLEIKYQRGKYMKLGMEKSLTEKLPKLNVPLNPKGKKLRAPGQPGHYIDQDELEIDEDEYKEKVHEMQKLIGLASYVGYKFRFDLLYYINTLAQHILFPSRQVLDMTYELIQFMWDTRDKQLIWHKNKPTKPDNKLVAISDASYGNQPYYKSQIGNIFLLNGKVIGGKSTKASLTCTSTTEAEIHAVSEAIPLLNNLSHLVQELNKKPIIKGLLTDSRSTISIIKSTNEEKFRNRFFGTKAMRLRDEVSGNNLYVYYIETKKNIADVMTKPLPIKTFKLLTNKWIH
# Experimental: (§1) The RT assays for HIV-1 and L1 RT were performed in a 20 μl reaction mixtures containing 50 mM Tris-Cl (pH 8.0), 50 mM KCl, 5 mM MgCl2, 10 mM DDT, 0.01 U template/primer, 1 μl [α-^32P] dTTP or [α-^32P] dCTP (final concentration 0.17 μM, 3000 Ci/mmol, 10 mCi/ml) at 37°C for 30 min. Then the mixture was spotted on DE81 paper and washed three times with 2×SSC buffer for a total time of 30 min. The DE81 paper was dried and counted by scintillation counter Beckman LS6000SC. RT assay for Ty1 RT was done under the same buffer condition except that 20 mM MgCl2 was used and the reaction mixture was incubated at room temperature. In each reaction the amounts of L1, HIV-1 and Ty1 RTs with the same specific activity were added. To test the inhibition of the RT inhibitors, 1 μl inhibitor was included in the mixture to obtain the desired concentration. […] All assays were done at least in triplicate.
# [4] = molecular target: T2, human L1 reverse transcriptase (MBP-RT fusion) (Homo sapiens, UniProt O00370); experiment: In vitro (cell-free) RT assay and kinetic analysis with recombinant L1 RT; type: biochemical; conditions: concentrations as high as 500 μM
# T2 construct: Human L1 ORF2 amino acid 238-1061 was inserted behind MBP gene in frame; made in house; host or cells: E. coli BL21
# Experimental: as §1
# The kinetic analysis was performed under the same conditions described above but with various concentrations of substrates and inhibitors as indicated in the text. Poly (rA)-oligo (dT)12-18 and [α-^32P] dTTP were used to analyze AZTTP and d4TTP. Poly (rI)-oligo (dC)12-18 and [α-^32P] dCTP were used to assay ddCTP and 3TCTP.
smiles,measurement,setting,value
"Cc1ccnc2c1NC(=O)c1cccnc1N2C1CC1 [NVP, nevirapine]",activity at 5 µM,"[1]; Homo sapiens, HeLa, 5 μM, control = 1.0, normalized to cell viability, read-out: Relative retrotransposition efficiency",108 ± 13%
same,activity at 50 µM,"[1]; Homo sapiens, HeLa, 50 μM, control = 1.0, normalized to cell viability, read-out: Relative retrotransposition efficiency",89 ± 3%
same,activity at 200 µM,"[1]; Homo sapiens, HeLa, 200 μM, control = 1.0, normalized to cell viability, read-out: Relative retrotransposition efficiency",89%
same,activity at 400 µM,"[1]; Homo sapiens, HeLa, 400 μM, control = 1.0, normalized to cell viability, read-out: Relative retrotransposition efficiency",87 ± 3%
same,decrease of L1 transposition frequency,[1]; at all tested concentrations,~ 10%
same,activity against a variety of polymerases,[2],inactive
same,reduction of susceptibility in HIV-1 mutants,[3],more than 50 fold
same,inhibition of Ty1 RT activity,Ty1 RT,no inhibition
same,inhibition of L1 RT activity,[4],no inhibition
same,inhibition of L1 RT activity,[4]; listed as nevirapine,no effect
